Test results from US20250352555A1, “METHOD OF INCREASING IMMUNE CELL ACTIVATION AND/OR TREATING CANCER USING DIBENZOXAZEPINONES” (VASCULAR THERAPEUTICS PTY LTD, priority 2022, published 2025).
Values joined by “and” are separate entries in the source; they are usually repeats but may differ in a detail not shown here. Equal values may be shown once.

System: Jurkat T cells
Experiment: RNA-seq of Jurkat T cells
Assay type: cell-based, human
Method: RNA-seq and bioinformatics analysis. Jurkat T cells were grown to confluence in 100 mm plates in complete medium and incubated with 10 μM BT2 or vehicle for 4 h. Total RNA was extracted using the RNeasy Mini Kit (Qiagen, cat. no. 74004) with modification. Briefly, cells were washed twice with pre-cooled 1×PBS and TRIzol reagent (Thermo Fisher Scientific cat. no. 15596026) was added to lyse the cells. Chloroform was added to the mixture before microfuge centrifugation at 13000 rpm for 15 min at 4° C. The upper aqueous layer containing total RNA was transferred to fresh microtubes, and isopropanol was added and loaded into RNeasy columns. Columns were washed with buffers RW1 and RPE. Total RNA was eluted from the column using ribonuclease-free water. Samples were submitted to the UNSW Ramaciotti Centre for Genomics for TruSeq Stranded mRNA-seq preparation and sequencing by One NextSeq 500 1×75 bp high-output flow cell with data output up to 400 M reads. Quality control of samples was set at >80% higher than Q30 at 1×75 bp.
RNA-seq reads were first assessed for quality using the tool FastQC (v0.11.8) www.bioinformatics.babraham.ac.uk/projects/fastqc/). The tool Salmon was used for quantifying transcript abundance from RNA-seq reads (Patro et al., 2017). The R package DESeq2 that incorporates a method for differential analysis of count data was then used to identify differentially expressed genes across specific comparisons (Love et al., 2014). This package was also used to perform principal component analysis. […] The ggplot2 R package was used to prepare bar plots, scatter plots, and density plots. The pheatmap R package was used to generate distance matrices, and clustered heatmaps. DESeq2 output was used to generate a ranked list for input into GSEA Pre-ranked (v6.0.12, Broad Institute) (Subramanian et al., 2005) for pathway analysis against the Curated (Canonical Pathway), Gene Ontology, and Hallmarks gene collections from MSigDb (Liberzon et al., 2015; Liberzon et al., 2011). Ranked scores were calculated by multiplying the sign of the log 2 fold change by the log 10 transformed adjusted p value. […] All immune response related gene sets were selected for display.
To gain insights into BT2's mode of action we conducted next generation RNA sequencing (RNA-seq) with extracts of Jurkat T cells exposed to 10 μM BT2 for 4 h.

## CCOC(=O)Nc1ccc2c(c1)C(=O)N(CC)c1ccccc1O2 [BT2, (10-ethyl-11-oxo-10,11-dihydro-dibenzo[b,f][1,4]oxazepin-2-yl)-carbamic acid ethyl ester]
10 μM BT2, 4 h, 3 replicates
  ABCA4 gene expression, BT2: 96.05 and 85.74 and 106.5
  ACTA2 gene expression, BT2: 643.6 and 663.2 and 658.1
  ACTG2 gene expression, BT2: 3514 and 3448 and 3526
  ADAT3 gene expression, BT2 Test 1-3: 32.66 and 24.79 and 20.09
  ADCYAP1 gene expression, BT2: 131.6 and 132.2 and 130.6
  ARHGAP29 gene expression, BT2: 550.4 and 556.8 and 506.4
  ATF3 gene expression, BT2: 975.9 and 937 and 1003
  BACH2 gene expression, BT2: 6174.2608 and 6260 and 6009.3283
  CD248 gene expression, BT2: 284.3 and 291.3 and 307.4
  CREB5 gene expression, BT2: 179.6 and 175.6 and 152.7
  DMBT1 gene expression, BT2: 193.1 and 180.8 and 166.8
  DUSP8 gene expression, BT2: 826.1 and 821.3 and 847
  ENPP1 gene expression, BT2: 2289 and 2283 and 2244
  EPAS1 gene expression, BT2: 332.3 and 428.7 and 372.8
  FAM166A gene expression, BT2 Test 1-3: 312.2 and 298.5 and 285.3
  FERMT2 gene expression, BT2: 3161.0909 and 3299 and 3249
  FLNC gene expression, BT2: 532.1 and 474.2 and 510.4
  GBP1 gene expression, BT2: 6844 and 6940 and 6949
  GBP2 gene expression, BT2: 343.9 and 332.6 and 320.5
  HIST1H2AC gene expression, BT2 Test 1-3: 62.43 and 67.15 and 71.34
  HIST1H2AG gene expression, BT2 Test 1-3: 51.87 and 40.29 and 74.35
  HIST2H2BE gene expression, BT2 Test 1-3: 35.54 and 54.75 and 51.24
  IL2RA gene expression, BT2: 168.1 and 193.2 and 169.8
  JUN gene expression, BT2: 4079.3537 and 4087 and 4015
  JUND gene expression, BT2: 7851.3391 and 7882 and 7703
  KCNMB1 gene expression, BT2: 1036.4075 and 994.8 and 1082
  MAF gene expression, BT2 Test 1-3: 49.95 and 50.62 and 48.23
  MYL4 gene expression, BT2: 896.2 and 889.4 and 904.3
  NPAS4 gene expression, BT2: 228.6 and 253.1 and 292.4
  NTN1 gene expression, BT2: 0 and 193.2 and 146.7
  PRKCE gene expression, BT2: 1433 and 1537 and 1488
  PRRT1 gene expression, BT2 Test 1-3: 20.17 and 22.73 and 60.28
  SIRPB2 gene expression, BT2: 112.4 and 120.9 and 128.6
  SPECC1L-ADORA2A gene expression, BT2: 209.4 and 316.1 and 206
  TEAD3 gene expression, BT2: 269.9 and 243.8 and 226.1
  TIMP3 gene expression, BT2: 202.7 and 212.8 and 228.1
  TUBA1A gene expression, BT2 Test 1-3: 4998 and 5147 and 5169
  TUBA1B gene expression, BT2 Test 1-3: 50484.2833 and 49034.778 and 49379.7789
  TUBA1C gene expression, BT2 Test 1-3: 9420 and 9004 and 9493
  TUBA4A gene expression, BT2 Test 1-3: 33.62 and 39.26 and 48.23
  TUBB2A gene expression, BT2 Test 1-3: 599.4 and 644.6 and 638
  TUBB3 gene expression, BT2 Test 1-3: 651.2 and 705.6 and 639
  TUBB4B gene expression, BT2 Test 1-3: 6034 and 5953 and 6048
  ZYX gene expression, BT2: 3059 and 3209 and 3141
10 μM BT2 vs vehicle, 4 h
  ABCA4 log2Fold Change: 2.991
  ACTA2 log2Fold Change: 1.228
  ACTG2 log2Fold Change: 2.581
  ADAT3 log2Fold Change: −1.31
  ADCYAP1 log2Fold Change: 1.242
  ARHGAP29 log2Fold Change: 1.497
  ATF3 log2Fold Change: 1.019
  BACH2 log2Fold Change: 1.126
  CD248 log2Fold Change: 2.579
  CREB5 log2Fold Change: 1.577
  DMBT1 log2Fold Change: 1.424
  DUSP8 log2Fold Change: 3.811
  ENPP1 log2Fold Change: 2.594
  EPAS1 log2Fold Change: 1.187
  FAM166A log2Fold Change: −1.443
  FERMT2 log2Fold Change: 1.127
  FLNC log2Fold Change: 1.158
  GBP1 log2Fold Change: 1.317
  GBP2 log2Fold Change: 1.999
  HIST1H2AC log2Fold Change: −1.445
  HIST1H2AG log2Fold Change: −1.417
  HIST2H2BE log2Fold Change: −1.273
  IL2RA log2Fold Change: 2.06
  JUN log2Fold Change: 2.561
  JUND log2Fold Change: 1.29
  KCNMB1 log2Fold Change: 1.455
  MAF log2Fold Change: −1.032
  MYL4 log2Fold Change: 2.052
  NPAS4 log2Fold Change: 1.211
  NTN1 log2Fold Change: 6.501
  PRKCE log2Fold Change: 1.177
  PRRT1 log2Fold Change: −1.322
  SIRPB2 log2Fold Change: 1.912
  SPECC1L-ADORA2A log2Fold Change: 1.096
  TEAD3 log2Fold Change: 1.133
  TIMP3 log2Fold Change: 1.85
  TUBA1A log2Fold Change: −1.19
  TUBA1B log2Fold Change: −1.394
  TUBA1C log2Fold Change: −1.121
  TUBA4A log2Fold Change: −1.253
  TUBB2A log2Fold Change: −1.005
  TUBB3 log2Fold Change: −1.262
  TUBB4B log2Fold Change: −1.52
  ZYX log2Fold Change: 1.537
10 μM, 4 h
  effect on FOS like 2 expression: negligible effects
  effect on FOSB expression: negligible effects
  increase of DUSP8 mRNA expression: 14.1 fold
  increase of JUND levels: 2.4 fold
  increase of netrin-1 (NTN1): 90.6 fold
  inhibition of MAF expression: 2 fold
10 μM, within 4 h
  JUN induction: 5.9 fold
